Data: PubChem BioAssay AID1996
In brackets after ≈: the same amount, converted by molar mass.

Details: buffer; pH 7.4; 200.0 µM

Row | Compound | solubility kinetic
1 | CC(=O)c1cc2c(cc1NC(=O)C1CN(C(C)=O)c3ccccc3O1)OCO2 (centres undefined) | 6.3 µg/mL (≈ 16.5 µM)
2 | CS/C(N)=N/C(=S)Nc1cccc(Cl)c1 | 31.4 µg/mL (≈ 121 µM)
3 | Cc1cc(C)nc(NS(=O)(=O)c2ccc(CC(C)C)cc2)c1 | 28.9 µg/mL (≈ 90.8 µM)
4 | Cc1cc(=O)oc(C)c1C(=O)Nc1cccc(F)c1 | > 39.2 µg/mL
5 | O=C(COC(=O)[C@H](Cc1ccccc1)NC(=O)c1ccco1)Nc1ccccc1OC(F)F | 64 µg/mL (≈ 140 µM)
6 | N#Cc1ccc(COC(=O)c2cnc3ccccc3n2)cc1 | 6.1 µg/mL (≈ 21.1 µM)
7 | CN(C)NC(=S)NC1CC2CCC1C2 (centres undefined) | > 32 µg/mL
8 | Nc1ccc(CCc2ccc(N)cc2)cc1 | 22 µg/mL (≈ 104 µM)
9 | CC(C)(C)NC(=O)NC12CC3CC(CC(C3)C1)C2 | 2.1 µg/mL (≈ 8.39 µM)
10 | Cc1cccnc1NC(=O)c1ccc(C(=O)c2ccccc2)cc1 | 42.5 µg/mL (≈ 134 µM)
11 | CC(C(=O)Nc1ccccc1)N(C)CCOc1ccccc1 (centres undefined) | 43.7 µg/mL (≈ 146 µM)
12 | COc1ccc(NS(=O)(=O)c2cccc(C(=O)NCC(c3cccs3)N3CCOCC3)c2)cc1 (centres undefined) | 71.3 µg/mL (≈ 142 µM)
13 | COc1ccc(NC(=S)NC(=O)C2CCC2)cc1 | 7.7 µg/mL (≈ 29.1 µM)
14 | Cc1nn(CC(=O)NC2CCCCC2)c(=O)c2cccn12 | > 43.3 µg/mL
15 | Cc1ccc(S(=O)(=O)NCC(=O)Nc2ccc3c(c2)OCO3)cc1 | 49.4 µg/mL (≈ 142 µM)
16 | CCOC(=O)c1ccc(Nc2nc(C)cc(C)n2)cc1 | 0.2 µg/mL (≈ 0.737 µM)
17 | Cc1ccc(S(=O)(=O)N2CCN(Cc3ccccc3)CC2)cc1 | 5 µg/mL (≈ 15.1 µM)
18 | Cc1cccc(N2C(=O)CC(c3ccc(F)cc3)C3=C2COC3=O)c1 (centres undefined) | > 50.6 µg/mL
19 | O=C(O)COCC(=O)NCc1csc2ccccc12 | 38.9 µg/mL (≈ 139 µM)
20 | CCOC(=O)c1sc(=S)n(CC)c1NC(=O)c1ccccc1C | 3.4 µg/mL (≈ 9.7 µM)
21 | Cn1c(N)c(C(=O)COC(=O)c2cccc(S(=O)(=O)NCc3ccccc3)c2)c(=O)n(C)c1=O | 17.6 µg/mL (≈ 36.2 µM)
22 | O=C1CCC(=O)N1c1ccc(-c2nc3sc4c(c3c(=O)o2)CCC4)cc1 | 1 µg/mL (≈ 2.73 µM)
23 | CCOC(=O)Cn1cc(C#N)c2cccc(CC)c21 | 35.3 µg/mL (≈ 138 µM)
24 | Clc1ccc(-c2nc3ccccc3[nH]2)cn1 | 31.8 µg/mL (≈ 138 µM)

Row | Compound | solubility kinetic
25 | Cn1cccc1CNC(=S)Nc1cc(F)cc(F)c1 | > 42.2 µg/mL
26 | CCN(CC)c1ccc(NC(=O)C2CCCC2)cc1 | 35.4 µg/mL (≈ 136 µM)
27 | COc1ccccc1OCCNC(=O)CCNC(=O)c1ccccc1Cl | > 56.5 µg/mL
28 | Cc1nnc(SC(C)C(=O)NC2CCCCC2)s1 (centres undefined) | > 42.8 µg/mL
29 | O=C(O)Cn1c(=O)c(-c2ccccc2)nc2ccccc21 | > 42 µg/mL
30 | COc1ccccc1-c1cc(C(=O)N2CCCC2)no1 | > 40.8 µg/mL
31 | CC(Sc1ccccn1)C(=O)Nc1ccc2c(c1)OCO2 (centres undefined) | 39 µg/mL (≈ 129 µM)
32 | Cc1cc(C)c(C(=O)NCC(=O)c2ccccc2)c(C)c1 | 8.8 µg/mL (≈ 31.3 µM)
33 | O=C(COc1ccccc1[N+](=O)[O-])OCC(=O)c1ccc(Br)s1 | 59.9 µg/mL (≈ 150 µM)
34 | Cc1ccc2ccc(S(=O)(=O)NCc3ccco3)cc2c1 | 37 µg/mL (≈ 123 µM)
35 | Cc1onc(-c2c(F)cccc2Cl)c1C(=O)N(C)C1CCCCC1 | > 52.6 µg/mL
36 | Cn1c(SCC(=O)N2CCCC2)nc2ccccc21 | > 41.3 µg/mL
37 | CNC(=S)Nc1ccc2nc(C)oc2c1 | > 33.2 µg/mL
38 | CCc1noc(C)c1C(=O)Nc1nc2c(C)cc(C)cc2s1 | 3.2 µg/mL (≈ 10.1 µM)
39 | CN(Cc1cnccn1)Cc1nc(Cc2ccccc2Cl)no1 | 43.9 µg/mL (≈ 133 µM)
40 | Cc1ccc(CSCC(=O)NCc2ccco2)cc1 | 36.8 µg/mL (≈ 134 µM)
41 | CCn1c(CNC(=O)C2CCCCC2)cc2cc(C)ccc21 | < 0.3 µg/mL
42 | O=C(CNS(=O)(=O)c1c(F)cccc1F)NC1CCCc2ccccc21 (centres undefined) | > 57.1 µg/mL
43 | COC(=O)c1ccc(C(=S)N2CCCCC2)cc1 | > 39.5 µg/mL
44 | COC(=O)/N=C(/Cc1ccc(OC)cc1)c1ccc(OC)cc1 | 43.6 µg/mL (≈ 139 µM)
45 | NC(=O)c1ccc(NC(=O)CSC(=O)c2ccccc2)cc1 | 16.4 µg/mL (≈ 52.2 µM)
46 | CSc1nc2ccccc2c(=O)n1-c1cccnc1 | 34.8 µg/mL (≈ 129 µM)
47 | CCCNC(=O)c1c(O)c2cccc3c2n(c1=O)CCC3 | 0.5 µg/mL (≈ 1.75 µM)
48 | O=C1/C(=C\c2cccnc2)N2CCC1CC2 | > 32.1 µg/mL

Row | Compound | solubility kinetic
49 | CN1CCCN(C(=O)COc2ccccc2Br)CC1 | > 49.1 µg/mL
50 | CC(=C\c1ccccc1)/C=C1/SC(=S)N(CCC(=O)O)C1=O | 34.7 µg/mL (≈ 104 µM)
51 | CCOC(=O)C1=C(C)NC(C)=C(C(=O)OCC)C1c1ccc(C)o1 | 1.8 µg/mL (≈ 5.4 µM)
52 | O=C(NCC1CCCO1)c1cncc(Br)c1 (centres undefined) | > 42.8 µg/mL
53 | CCC(=Nc1ccccc1O)C1=C(O)CC(c2ccccc2)CC1=O (centres undefined) | 39.7 µg/mL (≈ 118 µM)
54 | O=C(O)COCC(=O)Nc1cc(C(F)(F)F)cc(C(F)(F)F)c1 | > 51.8 µg/mL
55 | COc1cccc(OC)c1C(=O)Nc1cccc2c1CCCC2 | 41.1 µg/mL (≈ 132 µM)
56 | CC1(C)Cc2nc(-c3ccccc3)nc(SCC(O)CO)c2CO1 (centres undefined) | 51.7 µg/mL (≈ 149 µM)
57 | C=CCOc1ccccc1CNCc1ccc(F)cc1.Cl | > 46.2 µg/mL
58 | NS(=O)(=O)c1ccc(F)c(C(=O)O)c1 | > 32.9 µg/mL
59 | Cc1ncn2cc(-c3ccc(Cl)cc3Cl)[nH]c(=O)c12 | 2.8 µg/mL (≈ 9.52 µM)
60 | Cc1onc(-c2c(F)cccc2Cl)c1C(=O)NC1CC1 | > 44.2 µg/mL
61 | O=C(Nc1cccc(S(=O)(=O)N2CCCC2)c1)c1cccnc1 | 37.7 µg/mL (≈ 114 µM)
62 | COc1ccccc1OCCn1c(C)c(C=O)c2ccccc21 | 1 µg/mL (≈ 3.23 µM)
63 | CC(C)(C)NC(=O)NC(=O)CN1CCCc2ccccc21 | 11.9 µg/mL (≈ 41.1 µM)
64 | O=C(COC(=O)c1ccc2ccccc2n1)c1ccc(F)cc1 | 16.8 µg/mL (≈ 54.3 µM)
65 | Cc1ccc(C(=O)Nc2ccc3c(c2)OCCO3)cc1S(=O)(=O)N1CCOCC1 | 41.6 µg/mL (≈ 99.4 µM)
66 | CSc1ncccc1C(=O)Nc1ccccc1N1CCOCC1 | > 49.4 µg/mL
67 | C=CCC1Cc2c(Br)cccc2C(CC=C)N1 (centres undefined) | 13.3 µg/mL (≈ 45.5 µM)
68 | CSc1cccc(NC(=O)CNS(=O)(=O)c2ccccc2)c1 | > 50.5 µg/mL
69 | O=C(NCc1cccnc1)C(=O)Nc1ccc([N+](=O)[O-])cc1 | 3.7 µg/mL (≈ 12.3 µM)
70 | CCOC(=O)c1ccoc1CN1CCN(S(=O)(=O)c2ccc(C)c(C)c2)CC1 | 32.8 µg/mL (≈ 80.7 µM)
71 | N#Cc1ccccc1OCC(=O)OCC(=O)NC1CC1 | > 41.1 µg/mL
72 | COc1cccc(C(C)NC(=O)Cc2cccs2)c1 (centres undefined) | > 41.3 µg/mL

Row | Compound | solubility kinetic
73 | COC(=O)/C=C1\SC(=NC(=O)c2ccc(C)cc2)NC1=O | 44.5 µg/mL (≈ 146 µM)
74 | CCOC(=O)c1cc(C#N)c(N2CCNCC2)nc1C(F)(F)F | > 49.2 µg/mL
75 | Clc1nccc(NCc2ccccc2)n1 | > 33 µg/mL
76 | Cc1cc(C(=O)NC2CCCC(C)C2C)c2ccccc2n1 (centres undefined) | 18.9 µg/mL (≈ 63.8 µM)
77 | COc1ccc(C(=O)Nc2cc(C)on2)c(OC)c1 | 21.4 µg/mL (≈ 81.6 µM)
78 | Cc1ccc2c(c1C)NC(=O)CC(c1ccccc1O)=N2 | 0.6 µg/mL (≈ 2.14 µM)
79 | CC1CC(C)CN(C(=O)CNS(=O)(=O)c2cccs2)C1 (centres undefined) | 17.6 µg/mL (≈ 55.6 µM)
80 | N#CC1(NC(=O)CSc2nnc3n2CCCCC3)CCCCC1 | > 50 µg/mL
81 | Cc1nn(C)c(C)c1NS(=O)(=O)c1c(C)n[nH]c1C | > 42.5 µg/mL
82 | Cc1ccc(NC(=O)CCn2cnc3ccccc3c2=O)c(C)c1 | 13.7 µg/mL (≈ 42.6 µM)
83 | O=C(CN1C(=O)/C(=C2/SC(=S)N(CCS(=O)(=O)O)C2=O)c2ccccc21)Nc1cccc(Br)c1 | 14.3 µg/mL (≈ 24.6 µM)
84 | O=C(CCN1C(=O)C2CC=CCC2C1=O)OCC(=O)c1ccc(F)cc1 (centres undefined) | > 53.9 µg/mL
85 | CC(=O)c1ccc(NC(=O)c2cccc(NC(=O)c3ccccc3)c2)cc1 | 0.7 µg/mL (≈ 1.95 µM)
86 | O=C(COC(=O)Cc1cccs1)Nc1cc(S(=O)(=O)N2CCOCC2)ccc1Cl | 56.5 µg/mL (≈ 123 µM)
87 | CCOc1c(Cl)cc(CNCc2ccccn2)cc1OC.Cl | 45.2 µg/mL
88 | Cn1c(=O)c([N+](=O)[O-])c(-n2cnc3ccccc32)c2ccccc21 | > 48 µg/mL
89 | CC(=O)Nc1ccc(S(=O)(=O)N(C)CC(=O)N2CCN(C(=O)c3ccco3)CC2)cc1 | > 67.3 µg/mL
90 | CC(C(=O)NC1CCCCC1)N1C(=O)c2cccc3cccc1c23 (centres undefined) | 3.5 µg/mL (≈ 10.9 µM)
91 | O=C(NCCc1ccc(F)cc1)Nc1ccc([N+](=O)[O-])cc1 | 4.9 µg/mL (≈ 16.2 µM)
92 | CC1Cc2ccccc2N1C(=O)C1CC(=O)N(c2ccccc2)C1 (centres undefined) | 44.9 µg/mL (≈ 140 µM)
93 | CNS(=O)(=O)c1cc(N)ccc1C | 26.2 µg/mL (≈ 131 µM)
94 | Cc1cc(C)nc(NC(=O)Cc2ccc(Cl)cc2)c1 | 8.6 µg/mL (≈ 31.3 µM)
95 | O=[N+]([O-])c1ccc(C(O)C[n+]2ccccc2)cc1.[I-] (centres undefined) | 52.1 µg/mL
96 | CC(=O)N1C(C(=O)O)Cc2c([nH]c3ccccc23)C1(C)C (centres undefined) | > 42.9 µg/mL

Row | Compound | solubility kinetic
97 | CCOC(=O)N1CCN(CCc2ccccc2)CC1 | 30.6 µg/mL (≈ 117 µM)
98 | CC(Nc1nc(C(F)(F)F)nc2ccccc12)c1cccs1 (centres undefined) | 6.5 µg/mL (≈ 20.1 µM)
99 | C=CCn1c(C)c(C(=O)OCC)c2cc(O)c3ccccc3c21 | < 0.7 µg/mL
100 | O=C(NCC(c1ccco1)N1CCOCC1)c1ccccc1 (centres undefined) | > 45.1 µg/mL
101 | CC(=O)Nc1cccc(NC(=O)CCCC2CCCCC2)c1 | 3 µg/mL (≈ 9.92 µM)
102 | CCCCn1c(O)c(C(C)=Nc2ccc3c(c2)CCC3)c(=O)[nH]c1=O | < 0.2 µg/mL
103 | CC(=O)Nc1ccc(NC(=O)N(c2ccccc2)c2ccccc2)cc1 | 6.4 µg/mL (≈ 18.5 µM)
104 | COc1ccccc1NC(=O)NCCN1CCCCC1 | > 41.6 µg/mL
105 | CCCCN(C(=O)c1ccncc1)c1c(N)n(CCC)c(=O)[nH]c1=O | 37.1 µg/mL (≈ 107 µM)
106 | O=[N+]([O-])c1cccc(/C=C/c2ccncc2)c1 | 11.9 µg/mL (≈ 52.6 µM)
107 | CC(=O)CC(C)(C)Nc1nc2ccc([N+](=O)[O-])cc2o1 | > 41.6 µg/mL
108 | CN(C)c1ccc(C(=O)N=c2sccn2C)cc1[N+](=O)[O-] | 1.4 µg/mL (≈ 4.57 µM)
109 | Cc1cnc(C(=O)NCc2ccc(F)cc2)cn1 | > 36.8 µg/mL
110 | Cc1nc2ccccc2n1CC(=O)NC1CCCCCC1 | > 42.8 µg/mL
111 | CCCCN1C(=O)NC(NC(=O)C2CC2)(C(F)(F)F)C1=O (centres undefined) | > 46.1 µg/mL
112 | COc1cccc(N2C(=O)C3C(C2=O)C3(c2ccccc2)c2ccccc2)c1 (centres undefined) | 6.3 µg/mL (≈ 17.1 µM)
113 | Cl.O=C(CCN1CCc2ccccc2C1)Nc1ccc(F)c(F)c1 | 37.9 µg/mL
114 | CC(=O)C1C(=O)c2c(cccc2[N+](=O)[O-])C1=Nc1cccc(Cl)c1 (centres undefined) | 1.6 µg/mL (≈ 4.67 µM)
115 | CCOC(=O)CNC(=O)CN1CCC(c2nc3ccccc3[nH]2)CC1 | > 51.7 µg/mL
116 | Cc1ccc(N2C(=O)N(C(C)C)C(C)(C)CC2(C)O)cc1 (centres undefined) | > 43.6 µg/mL
117 | FC(F)Sc1nc2ccccc2[nH]1 | > 30 µg/mL
118 | O=C(CCCNC(=O)c1ccc(Cl)cc1)Nc1ccccc1F | 33.5 µg/mL (≈ 100 µM)
119 | CCS(=O)(=O)N1CCC(C(=O)Oc2ccccc2)CC1 | 39.1 µg/mL (≈ 131 µM)
